# Results as given in paper PMC10619691, “Effect of cyclic substituents on the anti-cancer activity and DNA interaction of ruthenium(II) bis-phenanthroline dipyridoquinoline” (Frontiers in Molecular Biosciences, 2023).
# What was measured:
# [1] = tested on: A2780 ovarian cancer; test: sulphorhodamine B (SRB) cytotoxicity assay; assay type: cell-based, human; settings: for IC50: SRB assay, 72 h incubation, mean ± SEM
# Description: (§1) The cytotoxicity profile of the ruthenium complexes […]-572, and POW-12A was assessed in various cancer cell lines, namely, human cervical cancer HeLa, prostate cancer cell line DU145, breast cancer cell line MDAMB231MB231, ovarian cancer cell line A2780, and cisplatin-resistant ovarian cancer cell line A2780-CP70, using the preferred screen of the National Cancer Institute, the sulphorhodamine (SRB) dye assay, and the trypan blue cell viability assay ([Skehan et al., 1990]; [Houghton et al., 2007]; [Strober, 2001]). To determine their selective toxicity profile, these complexes were also tested in a normal prostate cell line (PTN1A). From the similarity in chemical structures of the compounds, we deduced that a structure-activity relationship study will help elucidate key properties involved in the cytotoxic activity of this class of metal complexes. The sulphorhodamine B (SRB) assay was used to evaluate the cytotoxicity of each cancer line after treating them with the metal complexes in line with the previously established protocol ([Skehan et al., 1990]). A cell density of 3 × 10^4 cells/mL was treated with various concentrations (3, 10, 30, 50, and 100 μM) of each ruthenium complex by 1:200 dilutions of stock solutions (in DMSO) in culture media, using DMSO as a control. Then, 100 μL of the cell-drug suspension was added to the respective wells of a 96-well plate and incubated at 37°C for 72 h in a CO2-containing incubator. Following this, the cells were fixed using 25 ul of Carnoy's solution and left in the fridge (4°C) for 1 h. The plates were then rinsed with running water and tapped on paper to remove dead cells. The cells were then stained with 100 μL of sulphorhodamine B dye and left for 30 min, after which the dye was washed off using 1% acetic acid, and the plate was left to dry in the oven (60°C). The stained cells were then treated with 100 μL of Tris base (10 mM, pH 10) to solubilize the dye stain. Finally, the plates were analyzed using an Omega plate reader. Each assay was conducted in triplicate. % Cell response=Average of treated cells / Average of control cells x 100.
# [2] = tested on: A280-CP70 cisplatin-resistant ovarian cancer; test: sulphorhodamine B (SRB) cytotoxicity assay; assay type: cell-based, human; settings: SRB assay, 72 h incubation; mean ± SEM
# Description: as §1
# [3] = tested on: HeLa cervical cancer; test: sulphorhodamine B (SRB) cytotoxicity assay; assay type: cell-based, human; settings: 72 h incubation, mean ± SEM
# Description: as §1
# [4] = tested on: DU145 prostate cancer; test: sulphorhodamine B (SRB) cytotoxicity assay; assay type: cell-based, human; settings: 72 h incubation, mean ± SEM
# Description: as §1
# [5] = tested on: PNT1A normal prostate; test: sulphorhodamine B (SRB) cytotoxicity assay; assay type: cell-based, human; settings: for IC50: SRB assay, 72 h incubation, mean ± SEM
# Description: as §1
# [6] = tested on: MDA-MB-231 (TNBC); test: sulphorhodamine B (SRB) cytotoxicity assay; assay type: cell-based, human; settings: 72 h incubation, mean ± SEM
# Description: as §1
# [7] = tested on: HS DNA; test: DNA binding by fluorescence (emission) titration; design: species or system herring; settings: for binding constant / binding site size: emission titrations; for n′ (binding site size): titrating concentrated HS DNA into 5 μM solutions of ruthenium complex, direct fitting
# Source text: VNK-754 is a structural analog of [Ru(phen)2dpq]^2+, a complex that intercalates the dpq (dpq = dipyrido[3,2-f:2′,3′-h]quinoxaline) ligand from the minor groove ([Greguric et al., 1997]). The dpq ligand presents a sufficiently large planar surface to allow classical intercalation, and it might be expected that extending the surface with substituents would enhance such binding. However, while this is observed with the addition of aromatic rings, as in the case of [Ru(phen)2dppz]^2+, this may not be true for the addition of a saturated ring that distorts the planarity of the extended ring system (Figure 6). Studies were thus undertaken to establish the binding modes of POW-12A and VNK-572. All complexes bound strongly to DNA, and binding constants and binding site sizes were determined from emission titrations to be 1.91 × 10^6 M^–1 and 0.38 Ru/base for POW-12A, and 1.46 × 10^6 M^–1 and 0.24 Ru/base for VNK-572 (Table 3). […] The smallest binding site size a pure intercalator can have is four bases. The binding site size of POW-12A is smaller than four bases; this is not consistent with binding via pure intercalation.
# PBS buffer was prepared with NaCl (137 mM), KCl (2.70 mM), Na2HPO4 (10.1 mM), and KH2PO4 (1.77 mM) in nanopure water. Using HCl, the pH was adjusted to 7.40. PBS buffer was used for all photophysical experiments. For linear dichroism experiments, a PBS buffer without potassium was used. Solutions of open-circle and supercoiled φX174 DNA were obtained from New England Biolabs. Sodium salts of high-molecular-weight herring sperm (HS-DNA) and calf thymus (CT-DNA) from Sigma were dissolved in PBS buffer, and concentrations were determined spectrophotometrically using the extinction coefficient ε260 nm = 6600 M^−1 cm^−1 for nucleobase concentration. The alternating polynucleotide polydeoxyadenylic-thymidylic acid ([poly(dA-dT)]2) and polydeoxyguanylic-cytidylic acid ([poly(dG-dC)]2) from NUNABIO ([Whitfield et al., 2015]) were dissolved in PBS buffer, and their concentrations were determined using the extinction coefficients ε262 nm = 6700 M^−1 cm^−1 and ε254 nm = 8400 M^−1 cm^−1, respectively. Direct fitting to raw data from fluorescence titration experiments (titrating concentrated HS DNA into 5 μM solutions of ruthenium complex) was used to give the binding constant (KB) and binding site size (n′). The following equation is derived from the Scatchard equation: ∝^2∙KB/PD−KB/PD+1/PDDt+KB∙n^′+KB∙n^′ = 0, where Db/Dt=I−I0/I∞−I0 , PD is the phosphate: dye ratio, KB is the binding constant (M^−1), and n′ is the binding site size (bases per compound). The equation is in the form of a quadratic equation, where a = KB[Dt]/PD, b = −(KB/PD+1/PD[Dt ] +KB∙n′), and c = KBn′. The positive solution to this quadratic equation gives values for α, from which theoretical intensities at each PD are calculated. The least squares regression method was used, minimizing the squared residuals of the theoretical and experimental intensities and floating the values of KB, I0, I∞, and n′.
Structure (SMILES),IC50 [1] [µM],IC50 [2] [µM],IC50 [3] [µM],IC50 [4] [µM],IC50 [5] [µM],IC50 [6] [µM],binding constant [7],binding site size [7] [Ru/base],n′ (binding site size) [7] [bases per compound],fold difference between the anti-cancer activities of VNK-754 and VNK-572 ([1]; more susceptible cancer cell lines (A2780 and DU145)),fold difference in sensitivity between normal prostate cells (PNT1A) and prostate cancer cell line DU145 ([5]; from SRB IC50 values)
F[P-](F)(F)(F)(F)F.F[P-](F)(F)(F)(F)F.[Ru+2].c1cnc2c(c1)c1ncc3c(c1c1cccnc12)CCC3.c1cnc2c(c1)ccc1cccnc12.c1cnc2c(c1)ccc1cccnc12 [POW-12A],12 ± 1.73,35 ± 3.47,63 ± 6.35,35 ± 6.93,> 100,> 100,1.91 × 10^6 M^–1,0.38,2.63,,
F[P-](F)(F)(F)(F)F.F[P-](F)(F)(F)(F)F.[Ru+2].c1cnc2c(c1)c1ncc3c(c1c1cccnc12)CCCC3.c1cnc2c(c1)ccc1cccnc12.c1cnc2c(c1)ccc1cccnc12 [VNK-572],10 ± 4.04,15 ± 2.89,52 ± 6.35,19 ± 2.31,> 100,> 100,1.46 × 10^6 M^–1,0.24,4.16,seven-fold,more than five-fold
